Experimental data reported in patent US20220249454A1, “INHIBITORS OF MONOCARBOXYLATE TRANSPORTERS FOR CANCER IMMUNOTHERAPY” (NIROGY THERAPEUTICS, INC., priority 2021, published 2022).
pIC50: −log10 of the molar value. Each block holds one compound with its values, some of them ahead of it.

Legend:
[1] = system: panel of solid and haemotological tumor cell lines (e.g., Hs578t, SiHa, MDA-MB-231); assay: MTS cell proliferation assay (cytotoxicity); format: cell-based; settings: 72-96 hours, 10 mM lactate medium or RPMI 1640 medium, cell line not stated
Procedure: The anti-proliferation effect of MCT inhibition was investigated across a panel of solid and haemotological tumor cell lines. Cells were routinely cultured in their appropriate growth medium. On day 1, between 10,000-25,000 cells/well (e.g., Hs578t: 15,000 cells/well, SiHa: 10,000 cells/well, and MDA-MB-231: 25,000 cells/well) were plated into 96-well plates. 100 μL. of phosphate buffered saline solution was added to the external wells to prevent media evaporation. Plates were incubated in growth medium overnight at 37° C. in the presence of 5% CO2. On day 2, dry weight compound stocks were dissolved to a concentration of 10 mM in 100% DMSO. Compounds were further diluted in the assay medium; 10 mM lactate medium (without glucose, pyruvate, and glutamine) or RPMI 1640 medium (without pyruvate and glutamine) to generate a final dose range of 1 nM to 10 μM. Growth medium in the 96-well plate was replaced with the assay medium (10 mM lactate medium or RPMI medium or appropriate medium), and compounds were added to each well in the plate at different concentrations via serial dilution or pre-prepared solutions in assay medium. Plates were then incubated at 37° C. in the presence of 5% CO2 for a further 72-96 hours. On day 2-5, assay media was changed to 100 uL of DMEM/F12 and 20 μL of CellTiter 96 AQ MTS reagent was added to each well and the plate was returned to the incubator for 1-2 hours. MTS is bioreduced by NADPH or NADH produced by dehydrogenase enzymes in metabolically active cells into a coloured formazan product that is soluble in tissue culture medium. The amount of coloured formazan product is directly proportional to the number of living cells in culture. The absorbance of the plates was read on a Spectramax M5e plate reader using […] measurement wavelength. Dose response curves were plotted and IC50 values were calculated using GraphPad Prism. The IC50 value is equivalent to the concentration of compound that causes 50% inhibition of growth calculated from the compound treated signal to the vehicle treated signal.
Cytotoxicity of selected compounds is listed in Table 1, where IC50: A=<1 uM; B=1-10 uM; C=>10 uM; and NT=Not Tested.

[2] = system: monocarboxylate transporters; assay: Lactate detection assay in cancer cell lines (intracellular lactate, Lactate-glo); format: cell-based; settings: 24 hours incubation
Procedure: Cells are maintained in their appropriate growth medium (RPMI medium with 2 g/L glucose, 2 mM L-glutamine supplemented with 10% FBS and P/S (growth medium). 15,000-25,000 cells were seeded into white 96-well plates in growth medium and incubated for 24 hours at 37° C. and 5% CO2. A duplicate plate was also seeded for normalization by an MTS assay. Dry weight compound stocks were dissolved to a concentration of 10 mM in 100% DMSO. Compounds were further diluted in the assay medium (Lactate media: 10 mM lactate, 5% FBS, and 1× P/S; Glucose media: RPMI, 5% FBS, and 1× P/S). Growth media was changed 24 hours later to assay medium containing 10 μM compound or vehicle (DMSO) control and incubated for 24 hours. Conditioned media was collected and the cells were washed in 200 μL ice-cold PBS. […] After a 5 minute incubation, 12.5 μL Neutralization solution (1M Trizma) is incubated for 1 minute. Intracellular lactate measurements were performed using a Lactate-glo kit (Promega). Briefly, the lactate detection reagent is mixed immediately before use and 50 μL is pipetted into each well and incubated at room temperature for 1 hour. Lactate is oxidized by enzymatic reactions to generate light. The luminescence is recorded using a Spectramax M5e plate reader and the concentration of lactate is determined using a known concentration of spiked lactate in PBS using GraphPad Prism.

[3] = target: T1, monocarboxylate transporter 4 (MCT4) (Homo sapiens, UniProt O15427); settings: literature value; cited from earlier work
T1 sequence (O15427 2-465 limits assumed): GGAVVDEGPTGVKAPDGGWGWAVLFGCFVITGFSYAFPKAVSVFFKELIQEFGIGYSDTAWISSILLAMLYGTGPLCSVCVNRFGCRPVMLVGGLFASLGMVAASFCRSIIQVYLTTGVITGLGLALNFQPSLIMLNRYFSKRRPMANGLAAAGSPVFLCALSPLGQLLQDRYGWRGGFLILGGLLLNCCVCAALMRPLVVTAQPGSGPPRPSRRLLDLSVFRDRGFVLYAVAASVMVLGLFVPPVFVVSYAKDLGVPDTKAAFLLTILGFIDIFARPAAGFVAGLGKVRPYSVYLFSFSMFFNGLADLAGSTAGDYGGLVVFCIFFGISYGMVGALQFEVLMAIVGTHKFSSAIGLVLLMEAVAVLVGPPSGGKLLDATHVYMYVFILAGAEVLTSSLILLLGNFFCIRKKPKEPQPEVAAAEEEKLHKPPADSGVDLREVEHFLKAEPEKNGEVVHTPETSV
T1 sequence (P35613 140-385 partner limits assumed): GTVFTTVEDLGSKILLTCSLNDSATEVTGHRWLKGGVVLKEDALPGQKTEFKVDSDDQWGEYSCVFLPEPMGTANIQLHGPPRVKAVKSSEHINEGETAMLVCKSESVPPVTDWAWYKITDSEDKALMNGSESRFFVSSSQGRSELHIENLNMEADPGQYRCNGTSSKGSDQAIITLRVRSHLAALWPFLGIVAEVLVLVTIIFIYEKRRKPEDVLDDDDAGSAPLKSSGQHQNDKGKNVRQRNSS

[4] = system: tumor cells; settings: literature, Cell Reports 2019; cited from earlier work
[5] = target: T2, monocarboxylate transporter 1 (MCT1) (Homo sapiens, UniProt P53985); settings: literature value; cited from earlier work
T2 sequence (P53985 1-500): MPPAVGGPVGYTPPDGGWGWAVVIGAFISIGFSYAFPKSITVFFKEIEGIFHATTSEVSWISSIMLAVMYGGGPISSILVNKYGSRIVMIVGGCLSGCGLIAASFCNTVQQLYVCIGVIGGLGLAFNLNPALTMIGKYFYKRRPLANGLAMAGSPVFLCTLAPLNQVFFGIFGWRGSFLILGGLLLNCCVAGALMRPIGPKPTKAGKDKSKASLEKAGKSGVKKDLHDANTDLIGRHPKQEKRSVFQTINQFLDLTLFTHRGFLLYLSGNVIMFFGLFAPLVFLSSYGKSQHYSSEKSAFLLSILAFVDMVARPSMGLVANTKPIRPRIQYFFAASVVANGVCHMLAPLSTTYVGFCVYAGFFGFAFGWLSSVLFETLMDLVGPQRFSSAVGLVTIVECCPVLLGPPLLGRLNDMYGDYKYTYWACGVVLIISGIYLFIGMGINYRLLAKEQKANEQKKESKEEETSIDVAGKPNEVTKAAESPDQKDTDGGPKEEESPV
T2 sequence (P35613 140-385 partner limits assumed): T1 sequence (P35613 140-385 partner limits assumed)

IC50 [2]: < 1 µM
SMILES: CN(Cc1ccccc1)c1cc2oc(=O)c(C(=O)O)cc2s1 [Compound 1.001, 2-(benzyl(methyl)amino)-5-oxo-5H-thieno[3,2-b]pyran-6-carboxylic acid]
IC50 ([1]; Table 1 (Group 1)): < 1 µM

IC50 [2]: < 1 µM
SMILES: CN(Cc1ccc(F)cc1)c1cc2oc(=O)c(C(=O)O)cc2s1 [Compound 1.002, 2-((4-fluorobenzyl)(methyl)amino)-5-oxo-5H-thieno[3,2-b]pyran-6-carboxylic acid]
IC50 ([1]; Table 1 (Group 1)): < 1 µM

IC50 [2]: < 1 µM
SMILES: COc1cccc(C(=O)N(C)c2cc3oc(=O)c(C(=O)O)cc3s2)c1 [Compound 1.009, 2-(3-methoxy-N-methylbenzamido)-5-oxo-5H-thieno[3,2-b]pyran-6-carboxylic acid]
IC50 ([1]; Table 1 (Group 1)): < 1 µM

IC50 [2]: < 1 µM
SMILES: COc1ccccc1C(=O)N(C)c1cc2oc(=O)c(C(=O)O)cc2s1 [Compound 1.017, 2-[(2-Methoxy-benzoyl)-methyl-amino]-5-oxo-5H-thieno[3,2-b]pyran-6-carboxylic acid]
IC50 ([1]; Table 1 (Group 1)): < 1 µM

IC50 [2]: < 1 µM
SMILES: COc1cc(F)ccc1C(=O)N(C)c1cc2oc(=O)c(C(=O)O)cc2s1 [Compound 1.094, 2-(4-fluoro-2-methoxy-N-methylbenzamido)-5-oxo-5H-thieno[3,2-b]pyran-6-carboxylic acid]
IC50 ([1]; Table 1 (Group 1)): < 1 µM

SMILES: CN(C(=O)Nc1ccc(F)c(F)c1)c1cc2oc(=O)c(C(=O)O)cc2s1 [Compound 2.040, 2-(3-(3,4-difluorophenyl)-1-methylureido)-5-oxo-5H-thieno[3,2-b]pyran-6-carboxylic acid]
IC50 ([1]; Table 2 (Group 2)): < 1 µM

SMILES: CN(C(=O)Nc1ccc(Oc2ccccc2Cl)cc1)c1cc2oc(=O)c(C(=O)O)cc2s1 [Compound 2.041, 2-(3-(4-(2-chlorophenoxy)phenyl)-1-methylureido)-5-oxo-5H-thieno[3,2-b]pyran-6-carboxylic acid]
IC50 ([1]; Table 2 (Group 2)): < 1 µM

SMILES: CN(C(=O)Nc1cc(C(F)(F)F)cc(C(F)(F)F)c1)c1cc2oc(=O)c(C(=O)O)cc2s1 [Compound 2.042, 2-(3-(3,5-bis(trifluoromethyl)phenyl)-1-methylureido)-5-oxo-5H-thieno[3,2-b]pyran-6-carboxylic acid]
IC50 ([1]; Table 2 (Group 2)): < 1 µM

SMILES: CN(C(=O)NC1CCOCC1)c1cc2oc(=O)c(C(=O)O)cc2s1 [Compound 2.043, 2-(1-methyl-3-(tetrahydro-2H-pyran-4-yl)ureido)-5-oxo-5H-thieno[3,2-b]pyran-6-carboxylic acid]
IC50 ([1]; Table 2 (Group 2)): < 1 µM

SMILES: CN(C(=O)N1CCOCC1)c1cc2oc(=O)c(C(=O)O)cc2s1 [Compound 2.044, 2-(N-methylmorpholine-4-carboxamido)-5-oxo-5H-thieno[3,2-b]pyran-6-carboxylic acid]
IC50 ([1]; Table 2 (Group 2)): < 1 µM

SMILES: CN(C(=O)N1CCCCC1)c1cc2oc(=O)c(C(=O)O)cc2s1 [Compound 2.045, 2-(N-methylpiperidine-1-carboxamido)-5-oxo-5H-thieno[3,2-b]pyran-6-carboxylic acid]
IC50 ([1]; Table 2 (Group 2)): < 1 µM

SMILES: CN(C(=O)N1CCCC1)c1cc2oc(=O)c(C(=O)O)cc2s1 [Compound 2.046, 2-(N-methylpyrrolidine-1-carboxamido)-5-oxo-5H-thieno[3,2-b]pyran-6-carboxylic acid]
IC50 ([1]; Table 2 (Group 2)): < 1 µM

SMILES: COc1cnccc1NC(=O)N(C)c1cc2oc(=O)c(C(=O)O)cc2s1 [Compound 2.047, 2-(3-(3-methoxypyridin-4-yl)-1-methylureido)-5-oxo-5H-thieno[3,2-b]pyran-6-carboxylic acid]
IC50 ([1]; Table 2 (Group 2)): < 1 µM

SMILES: CN(C(=O)Nc1nc(C(C)(C)C)cs1)c1cc2oc(=O)c(C(=O)O)cc2s1 [Compound 2.048, 2-(3-(4-(tert-butyl)thiazol-2-yl)-1-methylureido)-5-oxo-5H-thieno[3,2-b]pyran-6-carboxylic acid]
IC50 ([1]; Table 2 (Group 2)): < 1 µM

SMILES: CC(C)c1csc(NC(=O)N(C)c2cc3oc(=O)c(C(=O)O)cc3s2)n1 [Compound 2.049, 2-(3-(4-isopropylthiazol-2-yl)-1-methylureido)-5-oxo-5H-thieno[3,2-b]pyran-6-carboxylic acid]
IC50 ([1]; Table 2 (Group 2)): < 1 µM

SMILES: CN(Cc1cccc(-c2ccc(F)cc2)c1)c1cc2oc(=O)c(C(=O)O)cc2s1 [Compound 2.050, 2-(((4′-fluoro-[1,1′-biphenyl]-3-yl)methyl)(methyl)amino)-5-oxo-5H-thieno[3,2-b]pyran-6-carboxylic acid]
IC50 ([1]; Table 2 (Group 2)): < 1 µM

SMILES: CN(C(=O)Nc1cc(C(C)(C)C)on1)c1cc2oc(=O)c(C(=O)O)cc2s1 [Compound 2.055, 2-(3-(5-(tert-butyl)isoxazol-3-yl)-1-methylureido)-5-oxo-5H-thieno[3,2-b]pyran-6-carboxylic acid]
IC50 ([1]; Table 2 (Group 2)): < 1 µM

SMILES: O=C(O)Cc1ccccc1Nc1c(Cl)cccc1Cl [diclofenac]
pIC50 [3]: 6.85
concentration required to see efficacy in in vitro models [4]: 150 to 200 µM
pIC50 [5]: 5.85
